Like-named read-outs stand apart in the source and are kept apart here.

Holding throughout (format): in vivo
In test [1] the test system is ragweed (common ragweed, Ambrosia elatior). In words: Test A postemergence. The following applies: Ambrosia artemisiifolia, post-emergence, 240 h, 125 g ai/ha, postemergence; visual injury after approximately 10 d; 0 to 100 scale (0 no effect, 100 complete control); read-out: Plant response rating, Ragweed. The gist of the method: (§1)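 Seeded soil received test chemicals as a preemergence directed spray, and seedlings at one to two leaves, 2–10 cm tall, received them postemergence, in a non-phytotoxic, surfactant-containing solvent mixture. Pots were held in a greenhouse for approximately 10 d, then rated for injury from 0, no effect, to 100, complete control.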

Test [2] deals with Kochia (Kochia scoparia). Kind of test: Test A postemergence. The settings on record: Bassia scoparia, post-emergence, 240 h, 125 g ai/ha, postemergence; visual injury after approximately 10 d; 0 to 100 scale (0 no effect, 100 complete control); read-out: Plant response rating, Kochia. The gist of the method:
as §1

A further test relates to corn (Zea mays). In words: Test A postemergence. The settings on record: Zea mays, post-emergence, 240 h, 125 g ai/ha, postemergence; visual injury after approximately 10 d; 0 to 100 scale (0 no effect, 100 complete control). The method in brief:
as §1

The subject of test [3] is pigweed (Amaranthus retroflexus). Kind of test: Test A postemergence. The settings on record: Amaranthus retroflexus, post-emergence, 240 h, 125 g ai/ha, postemergence; visual injury after approximately 10 d; 0 to 100 scale (0 no effect, 100 complete control); read-out: Plant response rating, Pigweed. The method in brief: as §1
Test [4] concerns barnyardgrass (Echinochloa crus-galli). In words: Test A postemergence. The settings on record: Echinochloa crus-galli, post-emergence, 240 h, 125 g ai/ha, postemergence; visual injury after approximately 10 d; 0 to 100 scale (0 no effect, 100 complete control); read-out: Plant response rating, Barnyardgrass. The gist of the method:
as §1

Test [5] relates to giant foxtail (Setaria faberii). In words: Test A postemergence. The following applies: Setaria faberi, post-emergence, 240 h, 125 g ai/ha, postemergence; visual injury after approximately 10 d; 0 to 100 scale (0 no effect, 100 complete control); read-out: Plant response rating, Foxtail, Giant. The method in brief:
as §1

Test [6] deals with Galium (catchweed bedstraw, Galium aparine). Kind of test: Test A postemergence. The following applies: Galium, post-emergence, 240 h, 125 g ai/ha, postemergence; visual injury after approximately 10 d; 0 to 100 scale (0 no effect, 100 complete control); read-out: Plant response rating, Galium. The gist of the method: as §1
The test system of test [7] is ryegrass, Italian (Italian ryegrass, Lolium multiflorum). Kind of test: Test A postemergence. The settings on record: Lolium multiflorum, post-emergence, 240 h, 125 g ai/ha, postemergence; visual injury after approximately 10 d; 0 to 100 scale (0 no effect, 100 complete control); read-out: Plant response rating, Ryegrass, Italian. The gist of the method: as §1
The test system of test [8] is wheat (Triticum aestivum). Kind of test: Test A postemergence. The settings on record: Triticum aestivum, post-emergence, 240 h, 125 g ai/ha, postemergence; visual injury after approximately 10 d; 0 to 100 scale (0 no effect, 100 complete control); read-out: Plant response rating, Wheat. The method in brief: as §1
The subject of test [9] is blackgrass (Alopecurus myosuroides). In words: Test A postemergence. The following applies: Alopecurus myosuroides, post-emergence, 240 h, 125 g ai/ha, postemergence; visual injury after approximately 10 d; 0 to 100 scale (0 no effect, 100 complete control); read-out: Plant response rating, Blackgrass. The method in brief: as §1
The subject of test [10] is ragweed (common ragweed, Ambrosia elatior). Kind of test: Test A preemergence. The settings on record: Ambrosia artemisiifolia, pre-emergence, 240 h; for pest or weed control at 125 g/ha: 125 g ai/ha, visual rating after approx. 10 d, 0 to 100 scale where 0 is no effect and 100 is complete control; for pest or weed control at 500 g/ha: 500 g ai/ha. The gist of the method: as §1

Test [11] has as its system Kochia (Kochia scoparia). In words: Test A preemergence. The settings on record: Bassia scoparia, pre-emergence, 240 h; for pest or weed control at 125 g/ha: 125 g ai/ha, visual rating after approx. 10 d, 0 to 100 scale where 0 is no effect and 100 is complete control; for pest or weed control at 500 g/ha: 500 g ai/ha. The method in brief:
as §1

The test system of test [12] is pigweed (Amaranthus retroflexus). In words: Test A preemergence. The following applies: Amaranthus retroflexus, pre-emergence, 240 h; for pest or weed control at 125 g/ha: 125 g ai/ha, visual rating after approx. 10 d, 0 to 100 scale where 0 is no effect and 100 is complete control; for pest or weed control at 500 g/ha: 500 g ai/ha.
The test system of test [13] is barnyardgrass (Echinochloa crus-galli). In words: Test A preemergence. The settings on record: Echinochloa crus-galli, pre-emergence, 240 h; for pest or weed control at 125 g/ha: 125 g ai/ha, visual rating after approx. 10 d, 0 to 100 scale where 0 is no effect and 100 is complete control; for pest or weed control at 500 g/ha: 500 g ai/ha. The gist of the method: as §1

The subject of test [14] is giant foxtail (Setaria faberii). Kind of test: Test A preemergence. The settings on record: Setaria faberi, pre-emergence, 240 h; for pest or weed control at 125 g/ha: 125 g ai/ha, visual rating after approx. 10 d, 0 to 100 scale where 0 is no effect and 100 is complete control; for pest or weed control at 500 g/ha: 500 g ai/ha. The gist of the method: as §1
In test [15] the test system is ryegrass, Italian (Italian ryegrass, Lolium multiflorum). In words: Test A preemergence. The following applies: Lolium multiflorum, pre-emergence, 240 h; for pest or weed control at 125 g/ha: 125 g ai/ha, visual rating after approx. 10 d, 0 to 100 scale where 0 is no effect and 100 is complete control; for pest or weed control at 500 g/ha: 500 g ai/ha. The method in brief: as §1

[16] abbreviates: preemergence, read-out: Plant response rating, Ragweed.
Where [17] appears, read: preemergence, read-out: Plant response rating, Kochia.
Setting [18] is: preemergence, read-out: Plant response rating, Pigweed.
The mark [19] stands for this setting: preemergence, read-out: Plant response rating, Barnyardgrass.
The mark [20] stands for this setting: preemergence, read-out: Plant response rating, Foxtail, Giant.
Where [21] appears, read: preemergence, read-out: Plant response rating, Ryegrass, Italian.

Take `O=C1NC[C@H](c2ccc3c(c2)CCO3)[C@H]1C(=O)Nc1cccc(F)c1F` [Compound 785]: the pest or weed control at 125 g/ha in test [1] was determined as 0%; in the test on Kochia (Kochia scoparia) [2], 0%; in test [3], 0%; in test [4] it was 90%; in test [5], 70%; in test [6] it was 50%. Further, the pest or weed control at 125 g/ha was 30% in test [7]; 20% in test [9]; 0% in [10] (setting [16]); 20% in the test with Kochia (Kochia scoparia) [11] (setting [17]); 0% in test [12] (setting [18]); 90% in test [13] (setting [19]). Besides, the pest or weed control at 125 g/ha in test [14] (setting [20]) worked out at 90%; in [15] (setting [21]) it was 0%. This molecule also showed a Corn plant response rating (crop injury, 0 = no effect, 100 = complete kill) at 125 g/ha in the test on corn (Zea mays) of 0%. Also, the plant injury at 125 g/ha in [8] was determined as 0%. Besides, the pest or weed control at 500 g/ha is 0% in [10] (Preemergence, visual injury vs untreated controls after approximately 10 d, read-out: Ragweed plant response rating (0 to 100 scale where 0 is no effect and 100 is complete control)); 40% with Kochia (Kochia scoparia) [11] (Preemergence, visual injury vs untreated controls after approximately 10 d, read-out: Kochia plant response rating (0 to 100 scale where 0 is no effect and 100 is complete control)); 20% in test [12] (Preemergence, visual injury vs untreated controls after approximately 10 d, read-out: Pigweed plant response rating (0 to 100 scale where 0 is no effect and 100 is complete control)); 90% in [13] (Preemergence, visual injury vs untreated controls after approximately 10 d, read-out: Barnyardgrass plant response rating (0 to 100 scale where 0 is no effect and 100 is complete control)); 90% in test [14] (Preemergence, visual injury vs untreated controls after approximately 10 d, read-out: Foxtail, Giant plant response rating (0 to 100 scale where 0 is no effect and 100 is complete control)); 40% in test [15] (Preemergence, visual injury vs untreated controls after approximately 10 d, read-out: Ryegrass, Italian plant response rating (0 to 100 scale where 0 is no effect and 100 is complete control)).

As to `CN1C[C@H](c2cc(F)c(F)c(F)c2)[C@@H](C(=O)Nc2ccc(F)c(F)c2F)C1=O` [Compound 757], the pest or weed control at 125 g/ha in test [1] was 0%; in the test with Kochia (Kochia scoparia) [2], 20%; in test [3], 20%; in [4] it was 90%; in test [5], 90%; in [6], 50%. Besides, the pest or weed control at 125 g/ha in test [7] was 20%; in test [9] it was 60%; in test [10] (setting [16]) it was 20%; in the test on Kochia (Kochia scoparia) [11] (setting [17]), 70%; in test [12] (setting [18]), 30%; in [13] (setting [19]), 90%. In addition, the pest or weed control at 125 g/ha turned out to be 90% in test [14] (setting [20]) and 30% in test [15] (setting [21]). Further, the Corn plant response rating (crop injury, 0 = no effect, 100 = complete kill) at 125 g/ha in the test with corn (Zea mays) is 70%. For the same molecule, in [8], the plant injury at 125 g/ha was 60%. The pest or weed control at 500 g/ha in test [10] (preemergence, 0 to 100 scale, 0 = no effect, 100 = complete control, read-out: Plant response rating, Ragweed) came to 90%; in the test with Kochia (Kochia scoparia) [11] (preemergence, 0 to 100 scale, 0 = no effect, 100 = complete control, read-out: Plant response rating, Kochia), 70%; in [12] (preemergence, 0 to 100 scale, 0 = no effect, 100 = complete control, read-out: Plant response rating, Pigweed), 70%; in test [13] (preemergence, 0 to 100 scale, 0 = no effect, 100 = complete control, read-out: Plant response rating, Barnyardgrass) it was 90%; in test [14] (preemergence, 0 to 100 scale, 0 = no effect, 100 = complete control, read-out: Plant response rating, Foxtail, Giant), 90%; in test [15] (preemergence, 0 to 100 scale, 0 = no effect, 100 = complete control, read-out: Plant response rating, Ryegrass, Italian), 60%.

For the origin of these results see patent US12077503B2, “Substituted cyclic amides and their use as herbicides” (FMC CORPORATION, priority 2015, dated 2024).
